Measurements: patent publication US8921409B2, “Combination of 4-{3-[cis-hexahydrocyclopenta[c]pyrrol-2(1H)-yl]propoxy}benzamide and a NMDA receptor antagonist and pharmaceutical compositions containing the same” (Les Laboratoires Servier, priority 2011, dated 2014)
Structures can show the parent of a compound that is named as a salt.

Test system: middle-aged (14-15 months old) C57B16 mouse
Experiment: Contextual serial discrimination test (model of episodic memory)
Assay type: in vivo
Excerpt: The effects of 4-{3-[cis-hexahydrocyclopenta[c]pyrrol-2(1H)-yl]propoxy}benzamide and memantine (both in the form of a hydrochloride), administered on their own or in combination, were studied using a contextual discrimination test in the middle-aged (14-15 months old) C57B16 mouse (n=12 per group) (Célérier et al., Learn Mem., 2004, 11(2), 196-204; Tronche et al., Behav. Brain Res., 2010, 215(2): 255-60). In this model, the middle-aged mice have a specific dysfunction of contextual episodic memory compared to young mice, without a deficiency in spatial memory. This model is relevant for evaluating the effects of products in Alzheimer's disease because patients suffering from that form of dementia also have disturbances of contextual episodic memory, this being the case from a very early stage (Gold and Budson, Expert Rev Neurother., 2008, 8(12): 1879-1891).
The mice, placed in a box with raised edges, learn two types of consecutive spatial discrimination (D1: white floor, then D2: black floor) on a floor with four holes, in which just one of the holes is baited, the arrangement being opposite in D1 and in D2. The colour of the floor (black or white) constitutes the internal context specific to each discrimination. 24 hours after the learning step, the mice are returned to the white contextual floor, and the following are measured: • the percentage of correct responses (i.e. % of lowering the head into the hole that was baited during the learning exercise on the white floor), • the percentage of interfering responses (i.e. % of lowering the head into the hole that was baited during the learning exercise on the black floor, the last context presented to the mice), • and the percentage of errors (i.e. % of lowering the head into the two holes that were not baited during learning, whether on the white floor or on the black floor (see FIG. 1).
The power of contextual memory is defined as being the difference between the percentage of correct responses and the percentage of interfering responses. […]

SMILES	power of contextual memory (% correct responses minus % interfering responses) (memantine hydrochloride 1 mg/kg of base per os, chronic treatment for 9 days, carrier −34%)	power of contextual memory (% correct responses minus % interfering responses) (compound S hydrochloride 0.1 mg/kg of base per os, chronic treatment for 9 days, carrier −34%)	power of contextual memory (% correct responses minus % interfering responses) (compound S on its own, 1 mg/kg of base per os)
CC12CC3CC(C)(C1)CC(N)(C3)C2 [memantine hydrochloride, memantine, reference compound]	−2%	–	–
NC(=O)c1ccc(OCCCN2C[C@H]3CCC[C@H]3C2)cc1 [compound S, 4-{3-[cis-hexahydrocyclopenta[c]pyrrol-2(1H)-yl]propoxy}benzamide]	–	−15%	+14%
